Laboratory results reported in publication PMC12597549 (Drug Metabolism and Disposition, 2025).
Numbering of substitutions follows the chain as printed. Read-outs that look alike come from different tables or passages of the source.

Assays:
UGT2B7 [1] = molecular target: T1, UGT2B7 (Homo sapiens, UniProt P16662); assay: Inhibition of UGT2B7-mediated hydromorphone glucuronidation by cannabinoids in pooled HLM (screening, IC50, Ki, inhibition type); format: biochemical; details: human, pooled human liver microsomes
T1 sequence (P16662 24-529): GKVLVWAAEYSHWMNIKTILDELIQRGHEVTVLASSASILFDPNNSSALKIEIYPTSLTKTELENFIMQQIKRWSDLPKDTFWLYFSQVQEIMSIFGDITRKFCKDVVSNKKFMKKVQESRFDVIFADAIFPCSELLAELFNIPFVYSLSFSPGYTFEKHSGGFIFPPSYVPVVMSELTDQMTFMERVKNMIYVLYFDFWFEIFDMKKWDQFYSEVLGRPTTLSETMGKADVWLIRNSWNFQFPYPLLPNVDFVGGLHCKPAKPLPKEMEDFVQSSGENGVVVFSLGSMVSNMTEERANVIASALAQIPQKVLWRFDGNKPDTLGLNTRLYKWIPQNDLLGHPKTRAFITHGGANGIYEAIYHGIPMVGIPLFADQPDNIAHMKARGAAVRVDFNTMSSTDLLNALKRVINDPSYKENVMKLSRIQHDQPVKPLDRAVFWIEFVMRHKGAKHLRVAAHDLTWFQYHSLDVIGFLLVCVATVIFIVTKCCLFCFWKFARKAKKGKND

[2] = molecular target: T2, UGT2B7 in pooled human liver microsomes (HLM) (Homo sapiens, UniProt P16662); assay: as above; format: biochemical; details: for Inhibition Type: type of reversible inhibition of UGT2B7-mediated hydromorphone metabolism in HLM, Lineweaver-Burk replots; for IC50 / Ki: HLM; for IC50: IC50 corrected for nonspecific binding (fu,inc from refs 32,33; 11-OH-THC fu,inc as surrogate for 7-OH-CBD and 7-COOH-CBD), mean ± SD; for Ki: Ki corrected for nonspecific binding (fu,inc from refs 32,33; 11-OH-THC fu,inc as surrogate for 7-OH-CBD), competitive model, mixed model for 11-OH-THC, read-out: Ki,u
T2 sequence (P16662 24-529): T1 sequence (P16662 24-529)

[3] = system: UGT2B7-mediated hydromorphone metabolism; assay: Static mechanistic IVIVE modeling of cannabinoid-hydromorphone drug interaction (AUCR); parameters: species or system human; details: after inhalation and oral consumption of THC and CBD
[4] = ref Bansal et al., 2022, cited from earlier work
UGT1A9 = system: UGT1A9; parameters: method as in Bansal et al., 2023; details: enzyme kinetic (HLM); ref Bansal et al., 2023; cited from earlier work
UGT2B7 [5] = system: UGT2B7; parameters: method as in Bansal et al., 2023; details: enzyme kinetic (HLM); ref Bansal et al., 2023; cited from earlier work
CYP1A2 [6] = system: CYP1A2; parameters: method as in Bansal et al., 2023; details: enzyme kinetic (HLM); ref Bansal et al., 2023; cited from earlier work
CYP2B6 = system: CYP2B6; parameters: method as in Bansal et al., 2023; details: enzyme kinetic (HLM); ref Bansal et al., 2023; cited from earlier work
CYP2C8 = system: CYP2C8; parameters: method as in Bansal et al., 2023; details: enzyme kinetic (HLM); ref Bansal et al., 2023; cited from earlier work
CYP2C9 = system: CYP2C9; parameters: method as in Bansal et al., 2023; details: enzyme kinetic (HLM); ref Bansal et al., 2023; cited from earlier work
CYP2C19 [7] = system: CYP2C19; parameters: method as in Bansal et al., 2023; details: enzyme kinetic (HLM); ref Bansal et al., 2023; cited from earlier work
CYP2D6 = system: CYP2D6; parameters: method as in Bansal et al., 2023; details: enzyme kinetic (HLM); ref Bansal et al., 2023; cited from earlier work
CYP3A4 = system: CYP3A4; parameters: method as in Bansal et al., 2023; details: enzyme kinetic (HLM); ref Bansal et al., 2023; cited from earlier work
CYP1A2 [8] = system: CYP1A2; parameters: method as in Bansal et al., 2020; details: ref Bansal et al., 2020, read-out: KI,u (binding-corrected half-maximal inactivation concentration); cited from earlier work
CYP2C19 [9] = system: CYP2C19; parameters: method as in Bansal et al., 2020; details: ref Bansal et al., 2020, read-out: KI,u (binding-corrected half-maximal inactivation concentration); cited from earlier work
CYP3A = system: CYP3A; parameters: method as in Bansal et al., 2020; details: ref Bansal et al., 2020, read-out: KI,u (binding-corrected half-maximal inactivation concentration); cited from earlier work
[10] = set value for static model, cited from earlier work; for ka (first-order absorption rate constant): ref Cox et al., 2019
UGT2B7^268Tyr [11] = molecular target: T3, UGT2B7^268Tyr (Homo sapiens, UniProt P16662); assay: in vitro
T3 sequence (P16662 24-529): T1 sequence (P16662 24-529)

[12] = cannabidiol PBPK input; ref ChEMBL database (https://www.ebi.ac.uk/); cited from earlier work
UGT2B7^268His = molecular target: T4, UGT2B7^268His (Homo sapiens, UniProt P16662, Y268H); assay: Inhibition of hydromorphone glucuronidation (HM3G formation) by cannabinoids in rUGT2B7^268His microsomes; format: biochemical; details: for inhibition of HM3G formation: 100 μM cannabinoid, 400 μM hydromorphone, 2% BSA, vs vehicle control; for IC50: IC50 corrected for nonspecific binding (fu,inc from refs 32,33; 11-OH-THC fu,inc as surrogate for 7-OH-CBD and 7-COOH-CBD), mean ± SD
T4 construct: expressed in transfected cells; microsomal membrane fraction
T4 sequence (P16662 24-529 Y268H): T1 sequence (P16662 24-529) with Y245H

[13] = Estimated maximum unbound hepatic inlet plasma concentrations of cannabinoids after oral or inhaled THC or CBD; parameters: species or system human; details: doses and Cmax from Bansal et al., 2022, read-out: Cmax,hepatic inlet,u
From the text: [I]h is the inhibitor concentration in the liver and is defined as follows:(7) [I]h=fu,p×(Cmax+Fa×Fg×Ka×Dose/Qh×Rb) where fu,p is the unbound fraction of inhibitor in plasma, and Cmax is the maximal total (free and bound) inhibitor concentration in the plasma.

UGT2B7^268Tyr [14] = molecular target: T3, UGT2B7^268Tyr; details: rUGT2B7^268Tyr microsomes; for inhibition of HM3G formation: 100 μM cannabinoid, 400 μM hydromorphone, 2% BSA, vs vehicle control
[15] = probe hydromorphone 400 μM (HM3G formation)
[16] = first-order absorption model, fasted

Compound: C=C(C)[C@@H]1CCC(C)=C[C@H]1c1c(O)cc(CCCCC)cc1O [CBD, cannabidiol]
- IC50 (UGT2B7 [1]; [15]): 140 ± 40 nM
- inhibition at 100 μM (UGT2B7 [1]; [15]): 83%
- Ki (UGT2B7 [1]; HLM, Ki corrected for nonspecific binding (fu,inc from refs 32,33; 11-OH-THC fu,inc as surrogate for 7-OH-CBD), competitive model, mixed model for 11-OH-THC, read-out: Ki,u): 68 ± 3 nM
- Inhibition Type [2]: Competitive
- increase in hydromorphone exposure (static modeling) [3]: > 1.25 fold
- Lag time ([4]; fasted): 1.5^1 hr
- fa [4, 16]: 0.25^1
- ka [4, 16]: 0.55^1 1/hr
- Fraction unbound in plasma [4]: 0.013
- Qgut [4]: 10.24 L/h
- fugut [4]: 0.013
- CLint, UGT: UGT1A9 (UGT1A9): 541 µL/min/mg of protein
- CLint, UGT: UGT2B7 (UGT2B7 [5]): 2162 µL/min/mg of protein
- CLint, CYP: CYP1A2 (CYP1A2 [6]): 56 µL/min/mg of protein
- CLint, CYP: CYP2B6 (CYP2B6): 46 µL/min/mg of protein
- CLint, CYP: CYP2C8 (CYP2C8): 51 µL/min/mg of protein
- CLint, CYP: CYP2C9 (CYP2C9): 93 µL/min/mg of protein
- CLint, CYP: CYP2C19 (CYP2C19 [7]): 193 µL/min/mg of protein
- CLint, CYP: CYP2D6 (CYP2D6): 38 µL/min/mg of protein
- CLint, CYP: CYP3A4 (CYP3A4): 220 µL/min/mg of protein
- KI (inactivation) (CYP1A2 [8]): 20 nM
- KI (inactivation) (CYP2C19 [9]): 73 nM
- KI (inactivation) (CYP3A): 106 nM
- ka (first-order absorption rate constant) [10]: 0.02
- inhibition at 100 μM (UGT2B7^268Tyr [11]): 96%
- Log P [12]: 6.33
- pKa [12]: 9.13

Compound: C=C(C)[C@@H]1CCC(CO)=C[C@H]1c1c(O)cc(CCCCC)cc1O [7-OH-CBD, 7-hydroxycannabidiol]
- inhibition of HM3G formation (UGT2B7^268His): 82%
- IC50 (UGT2B7^268His): 1390 ± 770 nM
- inhibition of HM3G formation ([2]; 100 μM cannabinoid, 400 μM hydromorphone, 2% BSA, pooled HLM, vs vehicle control): 87%
- IC50 [2]: 950 ± 250 nM
- Ki [2]: 740 ± 120 nM
- Inhibition Type [2]: Competitive
- increase in hydromorphone exposure (static modeling) [3]: > 1.25 fold
- Cmax ([13]; CBD 70 mg oral): 30 nM
- Cmax ([13]; CBD 700 mg oral): 340 nM
- Cmax ([13]; CBD 2000 mg oral): 980 nM
- inhibition of HM3G formation (UGT2B7^268Tyr [14]): 77%
- IC50 (UGT2B7^268Tyr [14]; read-out: IC50,u, IC50 corrected for nonspecific binding (fu,inc from refs 32,33; 11-OH-THC fu,inc as surrogate for 7-OH-CBD), mean ± SD): 1260 ± 930 nM

Compound: CCCCCc1cc(O)c2c(c1)OC(C)(C)[C@@H]1CCC(C)=C[C@@H]21 [THC, Δ^9-tetrahydrocannabinol, reference compound]
- inhibition of HM3G formation (UGT2B7^268His): 67%
- IC50 (UGT2B7^268His): 2920 ± 260 nM
- inhibition of HM3G formation (in words) ([2]; 100 μM cannabinoid, pooled HLM): only minimal or moderate inhibition
- IC50 [2]: 2500 ± 580 nM
- Ki [2]: 170 ± 20 nM
- Inhibition Type [2]: Competitive
- increase in hydromorphone exposure (static modeling) [3]: > 1.25 fold
- Cmax ([13]; THC 20 mg oral): 30 nM
- Cmax ([13]; THC 25 mg inhalation): 250 nM
- Cmax ([13]; THC 70 mg inhalation): 690 nM
- Cmax ([13]; THC 100 mg inhalation): 990 nM
- Cmax ([13]; THC 130 mg oral): 200 nM
- Cmax ([13]; THC 160 mg oral): 240 nM
- inhibition of HM3G formation (UGT2B7^268Tyr [14]): 45%
- inhibitory effect on hydromorphone metabolism for the UGT2B7∗2 variant (in words) (UGT2B7^268Tyr [14]): little to no inhibitory effect
- ka (first-order absorption rate constant) [10]: 0.02
- BP (blood to plasma ratio) ([10]; ref Schwilke et al., 2009): 0.4
